Consider 12 compounds from US20160039880A1 (priority 2012, published 2016).

≈ marks a conversion by molar mass, not a printed value. Like-named read-outs stand apart in the source and are kept apart here.

A short description of series [1]: Water Solubility Assay (measured in pH 7.8 buffer).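 For all read-outs here: precipitation onset detected as rise in absorbance at 650 nm across increasing concentrations, after shaking for 18 h, blank wells receiving DMSO only.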 Type of series: physicochemical. The note with it: for Water Solubility Assay: pH 7.8.
Method: The aqueous solubility of a compound of Formula I in buffer (pH 7.8) was measured by recording the onset of precipitation of the compound as a function of increasing concentration. The onset of precipitation, if it occurred, was detected by an increase in absorbance at 650 nm.
Assay Buffer: 35 mM HEPES pH 7.8
Stock solutions of Control and Test Compounds: 10 mM in 100% DMSO
10 mM stock solutions of control and test compounds were prepared in 100% DMSO.
Assay buffer (247.5 μl) was placed into flat bottomed transparent 96-well plate. For blank samples DMSO (2.5 μl) was added. For test and control samples 2.5 μl of the appropriate DMSO dilution stocks were added to the appropriate well. All test and control compounds were performed in triplicate.
The plates were sealed with adhesive plate seal and shaken at 250 rpm at 25° C. for 18 h on a plate shaker.
After incubation the plate seals were taken off and any bubbles observed in wells removed. The plates were read on a SpectraMaxM5 with a 5 s pre-shake at 650 nm.
Data files were transferred to the appropriate worksheet and the solubility range of the compounds was calculated from the data.
Series [2] deals with T1, Human recombinant cyclophilin A (Cyp A) (Homo sapiens, UniProt P62937).
The target of series [3] is T2, Calcineurin (Homo sapiens, UniProt P62937+P63098+Q08209).
The target of series [4] is T2, Calcineurin. The series can be described thus: Calcineurin Phosphatase (CaN) Assay with Cyp A (+CypA). Particulars: for IC50: read-out: Calcineurin Phosphatase (CaN) Assay (+CypA) IC50, in the presence of Cyp A, 1:1 complex with inhibitor.
Series [5] has as its target T1, Human recombinant cyclophilin A (Cyp A). The series can be described thus: Protease-free PPIase assay.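 Note: cis to trans isomerization of SUC-AAPF-pNA by 2 nM enzyme, read as absorbance at 330 nm over 300 s at 10 °C, catalytic rate corrected for uncatalyzed background.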
Where [6] appears, read: 35 mM HEPES pH 7.8, 1% DMSO, 25 °C, 18 h, read-out: Water Solubility Assay, concentration at which the compound remains in solution.
The mark [7] stands for this setting: read-out: Protease-free PPIase Assay Ki, cyclophilin A, 10 °C.

T1 sequence (P62937 whole entry): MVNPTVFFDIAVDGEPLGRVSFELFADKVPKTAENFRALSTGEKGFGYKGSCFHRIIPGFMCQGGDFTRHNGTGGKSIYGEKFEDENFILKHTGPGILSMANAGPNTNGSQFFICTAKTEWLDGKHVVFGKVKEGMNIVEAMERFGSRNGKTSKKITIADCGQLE
T2 sequence (P63098 whole entry, other chains not shown): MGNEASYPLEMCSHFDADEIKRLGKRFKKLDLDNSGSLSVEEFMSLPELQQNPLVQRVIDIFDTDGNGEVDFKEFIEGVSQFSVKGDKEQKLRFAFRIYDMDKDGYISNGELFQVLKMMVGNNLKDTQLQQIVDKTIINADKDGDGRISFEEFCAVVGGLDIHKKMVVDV
T2 sequence (P62937 whole entry, other chains not shown): as the sequence (P62937 whole entry) above

For `CC[C@H]1NC(=O)[C@@H]([C@H](O)[C@H](C)CCN2CC(F)(F)OC(F)(F)C2)N(C)C(=O)[C@@H](C(C)C)N(C)C(=O)[C@@H](CC(C)C)N(C)C(=O)[C@@H](CC(C)C)N(C)C(=O)[C@H](C)NC(=O)[C@@H](C)NC(=O)[C@@H](CC(C)C)N(C)C(=O)[C@@H](C(C)C)NC(=O)[C@H](CC(C)C)N(C)C(=O)[C@@H](C)N(C)C1=O` [Compound EK, [(3R,4R,5S)-4-Hydroxy-3-methyl-5-(methylamino)-1-(2,2,6,6-tetrafluoro-morpholin-4-yl)-hexanoic acid]^1[(R)-methyl-Sar]^3 cyclosporin A], in series [1], the “Water Solubility Assay” value lay within 25 to 50 µM. In addition, the Ki (commonly the dissociation constant of the complex between target and ligand, obtained from inhibition or displacement) in series [2] amounted to 12 nM. In addition, at Calcineurin [3], the immunosuppressive potential entry is “more immunosuppressive potential than others”.

For `CC[C@H]1NC(=O)[C@@H]([C@H](O)[C@H](C)CCN2CCC(F)(F)C2)N(C)C(=O)[C@@H](C(C)C)N(C)C(=O)[C@@H](CC(C)C)N(C)C(=O)[C@@H](CC(C)C)N(C)C(=O)[C@H](C)NC(=O)[C@@H](C)NC(=O)[C@@H](CC(C)C)N(C)C(=O)[C@@H](C(C)C)NC(=O)[C@H](CC(C)C)N(C)C(=O)[C@@H](C)N(C)C1=O` [Compound EL, [(3R,4R,5S)-(3,3-Difluoro-pyrrolidin-1-yl)-4-Hydroxy-3-methyl-5-(methylamino)-1-hexanoic acid]^1[(R)-methyl-Sar]^3 cyclosporin A], the “Water Solubility Assay” value in series [1] was in the range of 75 to 100 µM. Besides, the Ki in series [2] came out at 10 nM. Besides, the immunosuppressive potential entry at Calcineurin [3] was “more immunosuppressive potential than others”.

Turning to `CC[C@H]1NC(=O)[C@@H]([C@H](O)[C@H](C)CCN2CC(F)(F)C2)N(C)C(=O)[C@@H](C(C)C)N(C)C(=O)[C@@H](CC(C)C)N(C)C(=O)[C@@H](CC(C)C)N(C)C(=O)[C@H](C)NC(=O)[C@@H](C)NC(=O)[C@@H](CC(C)C)N(C)C(=O)[C@@H](C(C)C)NC(=O)[C@H](CC(C)C)N(C)C(=O)[C@@H](C)N(C)C1=O` [Compound EM, [(3R,4R,5S)-(3,3-Difluoro-azetidin-1-yl)-4-hydroxy-3-methyl-5-(methylamino)-1-hexanoic acid]^1[(R)-methyl-Sar]^3 cyclosporin A], the “Water Solubility Assay” value in series [1] lay in the range of 75 to 100 µM. For the same compound, the Ki in series [2] was found to be 9.5 nM. The immunosuppressive potential entry on Calcineurin [3] is listed as “more immunosuppressive potential than others”.

For `CC[C@H]1NC(=O)[C@@H]([C@H](O)[C@H](C)CCN2CCC(F)(F)CC2)N(C)C(=O)[C@@H](C(C)C)N(C)C(=O)[C@@H](CC(C)C)N(C)C(=O)[C@@H](CC(C)C)N(C)C(=O)[C@H](C)NC(=O)[C@@H](C)NC(=O)[C@@H](CC(C)C)N(C)C(=O)[C@@H](C(C)C)NC(=O)[C@H](CC(C)C)N(C)C(=O)[C@@H](C)N(C)C1=O` [Compound EN, [(3R,4R,5S)-(4,4-Difluoro-piperidin-1-yl)-4-hydroxy-3-methyl-5-(methylamino)-1-hexanoic acid]^1[(R)-methyl-Sar]^3 cyclosporin A], the “Water Solubility Assay” value in series [1] is 25 to 50 µM. The inhibition constant Ki in series [2] amounted to 6.7 nM. Moreover, the immunosuppressive potential entry on Calcineurin [3] was “more immunosuppressive potential than others”.

As to `CC[C@H]1NC(=O)[C@@H]([C@H](O)[C@H](C)CCN2CC(F)(F)OC(F)(F)C2)N(C)C(=O)[C@@H](C(C)C)N(C)C(=O)[C@@H](CC(C)C)N(C)C(=O)[C@@H](CC(C)C)N(C)C(=O)[C@H](C)NC(=O)[C@@H](C)NC(=O)[C@@H](CC(C)C)N(C)C(=O)[C@@H](C(C)C)NC(=O)[C@H](CC(C)C)N(C)C(=O)[C@@H](CO)N(C)C1=O` [Compound EO], the solubility at 18 h in series [1] (35 mM HEPES buffer pH 7.8, 25 °C, aqueous buffer, kinetic from dmso stock, pH 7.8 buffer, read-out: Water Solubility Assay) lay within 10 to 25 µM (≈ 13.6 to 34.1 µg/mL). In addition, the immunosuppressive potential result at Calcineurin [4] (in words, as measured by the MLR and CaN assays) is on record as “more immunosuppressive potential than others”. In addition, the Ki in series [5] was 13 nM.

In series [1] (25 °C, pH 7.8, aqueous buffer, kinetic from dmso stock), `CC[C@H]1NC(=O)[C@@H]([C@H](O)[C@H](C)CCN2CCC(F)(F)C2)N(C)C(=O)[C@@H](C(C)C)N(C)C(=O)[C@@H](CC(C)C)N(C)C(=O)[C@@H](CC(C)C)N(C)C(=O)[C@H](C)NC(=O)[C@@H](C)NC(=O)[C@@H](CC(C)C)N(C)C(=O)[C@@H](C(C)C)NC(=O)[C@H](CC(C)C)N(C)C(=O)[C@@H](CO)N(C)C1=O` [Compound EP] came in with a solubility at 18 h of 50 to 75 µM (≈ 65.6 to 98.4 µg/mL). Moreover, the Ki in series [5] was 3.4 nM. In addition, at Calcineurin [3], the immunosuppressive potential entry is on record as “more immunosuppressive potential than others”.

As for `CCC1NC(=O)C(C(O)C(C)CCN(CCC(F)(F)F)CCC(F)(F)F)N(C)C(=O)C(C(C)C)N(C)C(=O)C(CC(C)C)N(C)C(=O)C(CC(C)C)N(C)C(=O)C(C)NC(=O)C(C)NC(=O)C(CC(C)C)N(C)C(=O)C(C(C)C)NC(=O)C(CC(C)C)N(C)C(=O)C(C)N(C)C1=O` [Compound EQ, (3R,4R,5S)-1-[Bis-(3,3,3-trifluoro-propyl)-amino]-[(4-Hydroxy-3-methyl-5-(methylamino)-hexanoic acid]^1[(R)-methyl-Sar]^3 cyclosporin A], the “Water Solubility Assay” value in series [1] lay within 25 to 50 µM. Moreover, in series [2], the Ki stood at 4.6 nM. The immunosuppressive potential result at Calcineurin [3] is “more immunosuppressive potential than others”.

Regarding `CC[C@H]1NC(=O)[C@@H]([C@H](O)[C@H](C)CCN2CC(F)(F)C(F)(F)C2)N(C)C(=O)[C@@H](C(C)C)N(C)C(=O)[C@@H](CC(C)C)N(C)C(=O)[C@@H](CC(C)C)N(C)C(=O)[C@H](C)NC(=O)[C@@H](C)NC(=O)[C@@H](CC(C)C)N(C)C(=O)[C@@H](C(C)C)NC(=O)[C@H](CC(C)C)N(C)C(=O)[C@@H](C)N(C)C1=O` [Compound ER, [(3R,4R,5S)-4-Hydroxy-3-methyl-5-(methylamino)-1-(3,3,4,4-tetrafluoro-pyrrolidin-1-yl)-hexanoic acid]^1[(R)-methyl-Sar]^3 cyclosporin A], in series [1], the “Water Solubility Assay” value was 25 to 50 µM. The Ki in series [2] was determined as 6.7 nM. Further, at Calcineurin [3], the immunosuppressive potential entry is on record as “more immunosuppressive potential than others”.

Turning to `CC[C@H]1NC(=O)[C@@H]([C@H](O)[C@H](C)CCCCCN2CCOCC2)N(C)C(=O)[C@@H](C(C)C)N(C)C(=O)[C@@H](CC(C)C)N(C)C(=O)[C@@H](CC(C)C)N(C)C(=O)[C@H](C)NC(=O)[C@@H](C)NC(=O)[C@@H](CC(C)C)N(C)C(=O)[C@@H](C(C)C)NC(=O)[C@H](CC(C)C)N(C)C(=O)[C@@H](C)N(C)C1=O` [Compound G, [(6R,7R,8S)-7-hydroxy-6-methyl-8-(methylamino)-1-N-morpholino-nonanoic acid]^1[(R)-methyl-Sar]^3 cyclosporin A], in series [1] (setting [6]), the solubility at 18 h is reported as more than 100 µM. Also, on Calcineurin [4], the IC50 – broadly, the concentration that inhibits the measured activity by half – was more than 10000 nM. For the same compound, the Ki in series [5] (setting [7]) worked out at 6.2 nM.

As for `CC[C@H]1NC(=O)[C@@H]([C@H](O)[C@H](C)CCCC(=O)N2CCOCC2)N(C)C(=O)[C@@H](C(C)C)N(C)C(=O)[C@@H](CC(C)C)N(C)C(=O)[C@@H](CC(C)C)N(C)C(=O)[C@H](C)NC(=O)[C@@H](C)NC(=O)[C@@H](CC(C)C)N(C)C(=O)[C@@H](C(C)C)NC(=O)[C@H](CC(C)C)N(C)C(=O)[C@@H](C)N(C)C1=O` [Compound H, [(5R,6R,7S)-6-hydroxy-5-methyl-7-(methylamino)-1-N-morpholino-1-oxo-octanoic acid]^1[(R)-methyl-Sar]^3 cyclosporin A], the solubility at 18 h in series [1] (setting [6]) is recorded as more than 100 µM. Further, the IC50 at Calcineurin [4] is more than 10000 nM. Besides, the Ki in series [5] (setting [7]) was 3.9 nM.

As to `CC[C@H]1NC(=O)[C@@H]([C@H](O)[C@H](C)CCN2CCOCC2)N(C)C(=O)[C@@H](C(C)C)N(C)C(=O)[C@@H](CC(C)C)N(C)C(=O)[C@@H](CC(C)C)N(C)C(=O)[C@H](C)NC(=O)[C@@H](C)NC(=O)[C@@H](CC(C)C)N(C)C(=O)[C@@H](C(C)C)NC(=O)[C@H](CC(C)C)N(C)C(=O)[C@@H](COCCN(CC)CC)N(C)C1=O` [Compound S, [(3R,4R,5S)-4-Hydroxy-3-methyl-5-(methylamino)-1-N-morpholino-hexanoic acid]^1[(R)-2-diethylaminoethyloxymethyl-Sar]^3 cyclosporin A], the solubility at 18 h in series [1] (setting [6]) is more than 100 µM. Besides, the IC50 on Calcineurin [4] is more than 10000 nM. Further, in series [5] (setting [7]), the Ki is 10 nM.

For `CC[C@H]1NC(=O)[C@@H]([C@H](O)[C@H](C)CCN2CCCOCC2)N(C)C(=O)[C@@H](C(C)C)N(C)C(=O)[C@@H](CC(C)C)N(C)C(=O)[C@@H](CC(C)C)N(C)C(=O)[C@H](C)NC(=O)[C@@H](C)NC(=O)[C@@H](CC(C)C)N(C)C(=O)[C@@H](C(C)C)NC(=O)[C@H](CC(C)C)N(C)C(=O)[C@@H](C)N(C)C1=O` [Compound X], the solubility at 18 h in series [1] (setting [6]) is more than 100 µM. Besides, at Calcineurin [4], the IC50 is more than 10000 nM. In addition, the Ki in series [5] (setting [7]) worked out at 4.9 nM.
